Results published in patent US11986532B2 (Arvinas Operations, Inc., priority 2021, dated 2024).
Read-outs that look alike come from different tables or passages of the source.

Target: T1, BCL6 (Homo sapiens, UniProt P41182)
T1 construct: endogenous in cells; host or cells: T47D breast cancer epithelial cells
Assay: Immunofluorescence protocol for high content imaging of BCL6 (degradation) in T47D cells, 3 days compound treatment
Type: cell-based
Details: for DC50: read-out: Mean DC50 (nM)* category; for Dmax: read-out: Mean Dmax (%)** category
Outline: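 Read-out: high-content imaging of anti-BCL6 immunofluorescence (Alexa-488 secondary) with CellMask and Hoechst counterstains, 10×, 4 fields/well. Cells had 3 days of compound exposure at 37° C, 5% CO2, 11-point 3-fold series from a final top of 0.1 or 1 μM.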

[1] = T47D cells, 3 days compound treatment

SMILES | DC50 [1] | Dmax [1] | Dmax (T47D) | DC50
CCc1c(N2CCN([C@H]3C[C@H](OC4CCN(c5ncc(Cl)c(Nc6ccc7c(c6)cc(OCC(=O)NC)c(=O)n7C(C)C)n5)CC4)C3)CC2)ccc2c1C(=O)N(C1CCC(=O)NC1=O)C2=O (stereo partly drawn) [Compound 200, 2-({6-[(5-chloro-2-{4-[(1r,3r)-3-{4-[2-(2,6-dioxopiperidin-3-yl)-4-ethyl-1,3-dioxo-2,3-dihydro-1H-isoindol-5-yl]piperazin-1-yl}cyclobutoxy]piperidin-1-yl}pyrimidin-4-yl)amino]-2-oxo-1-(propan-2-yl)-1,2-dihydroquinolin-3-yl}oxy)-N-methylacetamide] | 10 to 50 nM | ≥ 70% | – | –
CNC(=O)COc1cc2cc(Nc3nc(N4CCN(CC5CC6(CCN(c7cccc8c7CN(C7CCC(=O)NC7=O)C8=O)CC6)C5)CC4)ncc3Cl)ccc2n(C(C)C)c1=O (stereo not drawn) [Compound 7, 2-{[6-({5-chloro-2-[4-({7-[2-(2,6-dioxopiperidin-3-yl)-1-oxo-2,3-dihydro-1H-isoindol-4-yl]-7-azaspiro[3.5]nonan-2-yl}methyl)piperazin-1-yl]pyrimidin-4-yl}amino)-2-oxo-1-(propan-2-yl)-1,2-dihydroquinolin-3-yl]oxy}-N-methylacetamide] | < 10 nM | ≥ 70% | – | –
CNC(=O)COc1cc2cc(Nc3nc(N4CCC(F)(CN5CCC6(CC5)CN(c5ccc7c(c5)CN(C5CCC(=O)NC5=O)C7=O)C6(C)C)CC4)ncc3Cl)ccc2n(C(C)C)c1=O (stereo not drawn) [Compound 382, 2-{[6-({5-chloro-2-[4-({2-[2-(2,6-dioxopiperidin-3-yl)-1-oxo-2,3-dihydro-1H-isoindol-5-yl]-1,1-dimethyl-2,7-diazaspiro[3.5]nonan-7-yl}methyl)-4-fluoropiperidin-1-yl]pyrimidin-4-yl}amino)-2-oxo-1-(propan-2-yl)-1,2-dihydroquinolin-3-yl]oxy}-N-methylacetamide] | – | – | ≥ 70% | < 10 nM
CNC(=O)COc1cc2cc(Nc3nc(N4CCC(F)(CN5CCC6(CC5)CCN(c5c(F)ccc7c5CN(C5CCC(=O)NC5=O)C7=O)CC6)CC4)ncc3Cl)ccc2n(C(C)C)c1=O (stereo not drawn) [Compound 151, 2-{[6-({5-chloro-2-[4-({9-[2-(2,6-dioxopiperidin-3-yl)-5-fluoro-1-oxo-2,3-dihydro-1H-isoindol-4-yl]-3,9-diazaspiro[5.5]undecan-3-yl}methyl)-4-fluoropiperidin-1-yl]pyrimidin-4-yl}amino)-2-oxo-1-(propan-2-yl)-1,2-dihydroquinolin-3-yl]oxy}-N-methylacetamide] | < 10 nM | 50 to 70% | – | –
CNC(=O)COc1cc2c(F)c(Nc3cc(N4CCC(F)(CN5CCC6(CC5)CN(c5ccc7c(c5F)CN(C5CCC(=O)NC5=O)C7=O)C6)CC4)ncc3Cl)ccc2n(C(C)C)c1=O (stereo not drawn) [Compound 259, 2-{[6-({5-chloro-2-[4-({2-[2-(2,6-dioxopiperidin-3-yl)-4-fluoro-1-oxo-2,3-dihydro-1H-isoindol-5-yl]-2,7-diazaspiro[3.5]nonan-7-yl}methyl)-4-fluoropiperidin-1-yl]pyridin-4-yl}amino)-5-fluoro-2-oxo-1-(propan-2-yl)-1,2-dihydroquinolin-3-yl]oxy}-N-methylacetamide] | – | – | 50 to 70% | < 10 nM
CNC(=O)COc1cc2cc(Nc3nc(N4CCC(O[C@H]5C[C@H](N6CCN(c7ccc8c(c7Cl)CN(C7CCC(=O)NC7=O)C8=O)[C@@H](C)C6)C5)CC4)ncc3Cl)ccc2n(C(C)C)c1=O (stereo partly drawn) [Compound 206, 2-({6-[(5-chloro-2-{4-[(1r,3r)-3-[(3S)-4-[4-chloro-2-(2,6-dioxopiperidin-3-yl)-1-oxo-2,3-dihydro-1H-isoindol-5-yl]-3-methylpiperazin-1-yl]cyclobutoxy]piperidin-1-yl}pyrimidin-4-yl)amino]-2-oxo-1-(propan-2-yl)-1,2-dihydroquinolin-3-yl}oxy)-N-methylacetamide] | < 10 nM | ≥ 70% | – | –
CNC(=O)COc1cc2cc(Nc3nc(N4CCC(O[C@H]5C[C@H](N6CCN(c7ccc8c(c7F)CN([C@@H]7CCC(=O)NC7=O)C8=O)CC6)C5)CC4)ncc3Cl)ccc2n(C(C)C)c1=O [Compound 392, 2-({6-[(5-chloro-2-{4-[(1r,3r)-3-(4-{2-[(3R)-2,6-dioxopiperidin-3-yl]-4-fluoro-1-oxo-2,3-dihydro-1H-isoindol-5-yl}piperazin-1-yl)cyclobutoxy]piperidin-1-yl}pyrimidin-4-yl)amino]-2-oxo-1-(propan-2-yl)-1,2-dihydroquinolin-3-yl}oxy)-N-methylacetamide] | – | – | ≥ 70% | < 10 nM
CNC(=O)COc1cc2cc(Nc3nc(N4CCC(O[C@H]5C[C@H](N6[C@H](C)CN(c7ccc8c(c7)CN(C7CCC(=O)NC7=O)C8=O)C[C@H]6C)C5)CC4)ncc3Cl)ccc2n(C(C)C)c1=O (stereo partly drawn) [Compound 250, 2-({6-[(5-chloro-2-{4-[(1r,3r)-3-[(2R,6R)-4-[2-(2,6-dioxopiperidin-3-yl)-1-oxo-2,3-dihydro-1H-isoindol-5-yl]-2,6-dimethylpiperazin-1-yl]cyclobutoxy]piperidin-1-yl}pyrimidin-4-yl)amino]-2-oxo-1-(propan-2-yl)-1,2-dihydroquinolin-3-yl}oxy)-N-methylacetamide] | – | – | 50 to 70% | < 10 nM
CNC(=O)COc1cc2cc(Nc3nc(N4CCC(O[C@H]5C[C@H](N6CCC(c7cc8c(cc7C(F)(F)F)C(=O)N(C7CCC(=O)NC7=O)C8)CC6)C5)CC4)ncc3Cl)ccc2n(C(C)C)c1=O (stereo partly drawn) [Compound 212, 2-({6-[(5-chloro-2-{4-[(1r,3r)-3-{4-[2-(2,6-dioxopiperidin-3-yl)-1-oxo-6-(trifluoromethyl)-2,3-dihydro-1H-isoindol-5-yl]piperidin-1-yl}cyclobutoxy]piperidin-1-yl}pyrimidin-4-yl)amino]-2-oxo-1-(propan-2-yl)-1,2-dihydroquinolin-3-yl}oxy)-N-methylacetamide] | – | – | 50 to 70% | < 10 nM
CNC(=O)COc1cc2cc(Nc3nc(N4CCN(C[C@H]5C[C@H](N6CCN(c7ccc8c(c7)CN(C7CCC(=O)NC7=O)C8=O)CC6)C5)CC4)ncc3Cl)ccc2n(C(C)C)c1=O (stereo partly drawn) [Compound 342, 2-[(6-{[5-chloro-2-(4-{[(1r,3r)-3-{4-[2-(2,6-dioxopiperidin-3-yl)-1-oxo-2,3-dihydro-1H-isoindol-5-yl]piperazin-1-yl}cyclobutyl]methyl}piperazin-1-yl)pyrimidin-4-yl]amino}-2-oxo-1-(propan-2-yl)-1,2-dihydroquinolin-3-yl)oxy]-N-methylacetamide] | – | – | ≥ 70% | < 10 nM
CNC(=O)COc1cc2cc(Nc3nc(N4CCC(OC5CCC6(CC5)CN(c5cc(F)cc7c5CN(C5CCC(=O)NC5=O)C7=O)C6)CC4)ncc3Cl)ccc2n(C(C)C)c1=O (stereo not drawn) [Compound 299, 2-{[6-({5-chloro-2-[4-({2-[2-(2,6-dioxopiperidin-3-yl)-6-fluoro-1-oxo-2,3-dihydro-1H-isoindol-4-yl]-2-azaspiro[3.5]nonan-7-yl}oxy)piperidin-1-yl]pyrimidin-4-yl}amino)-2-oxo-1-(propan-2-yl)-1,2-dihydroquinolin-3-yl]oxy}-N-methylacetamide] | – | – | 50 to 70% | < 10 nM
CNC(=O)COc1cc2cc(Nc3nc(N4CCC(OC5CCC6(CCN(c7ccc8c(c7)CN(C7CCC(=O)NC7=O)C8=O)C6)C5)CC4)ncc3Cl)ccc2n(C(C)C)c1=O (stereo not drawn) [Compound 98, 2-{[6-({5-chloro-2-[4-({2-[2-(2,6-dioxopiperidin-3-yl)-1-oxo-2,3-dihydro-1H-isoindol-5-yl]-2-azaspiro[4.4]nonan-7-yl}oxy)piperidin-1-yl]pyrimidin-4-yl}amino)-2-oxo-1-(propan-2-yl)-1,2-dihydroquinolin-3-yl]oxy}-N-methylacetamide] | < 10 nM | < 50% | – | –
CNC(=O)COc1cc2cc(Nc3nc(N4CCC(O[C@H]5C[C@H](N6CCN(c7ccc8c(c7)C(=O)N(C7CCC(=O)NC7=O)C8=O)C[C@@H]6C)C5)CC4)ncc3Cl)ccc2n(C(C)C)c1=O (stereo partly drawn) [Compound 261, 2-({6-[(5-chloro-2-{4-[(1r,3r)-3-[(2S)-4-[2-(2,6-dioxopiperidin-3-yl)-1,3-dioxo-2,3-dihydro-1H-isoindol-5-yl]-2-methylpiperazin-1-yl]cyclobutoxy]piperidin-1-yl}pyrimidin-4-yl)amino]-2-oxo-1-(propan-2-yl)-1,2-dihydroquinolin-3-yl}oxy)-N-methylacetamide] | – | – | 50 to 70% | 10 to 50 nM
CNC(=O)COc1cc2cc(Nc3nc(N4CCN(CC5CCC6(CC5)CN(c5cc7c(cc5F)C(=O)N(C5CCC(=O)NC5=O)C7)C6)CC4)ncc3Cl)ccc2n(C(C)C)c1=O (stereo not drawn) [Compound 306, 2-{[6-({5-chloro-2-[4-({2-[2-(2,6-dioxopiperidin-3-yl)-6-fluoro-1-oxo-2,3-dihydro-1H-isoindol-5-yl]-2-azaspiro[3.5]nonan-7-yl}methyl)piperazin-1-yl]pyrimidin-4-yl}amino)-2-oxo-1-(propan-2-yl)-1,2-dihydroquinolin-3-yl]oxy}-N-methylacetamide] | – | – | 50 to 70% | < 10 nM
CNC(=O)COc1cc2cc(Nc3nc(N4CCC(O[C@H]5C[C@H](N6CC=C(c7ccc8c(c7)C(=O)N(C7CCC(=O)NC7=O)C8=O)CC6)C5)CC4)ncc3Cl)ccc2n(C(C)C)c1=O (stereo partly drawn) [Compound 303, 2-({6-[(5-chloro-2-{4-[(1r,3r)-3-{4-[2-(2,6-dioxopiperidin-3-yl)-1,3-dioxo-2,3-dihydro-1H-isoindol-5-yl]-1,2,3,6-tetrahydropyridin-1-yl}cyclobutoxy]piperidin-1-yl}pyrimidin-4-yl)amino]-2-oxo-1-(propan-2-yl)-1,2-dihydroquinolin-3-yl}oxy)-N-methylacetamide] | – | – | 50 to 70% | 50 to 100 nM
